Results taken from PubChem BioAssay AID1918952 (Molecular Pharmacology Branch, DTP, NCI, 2023).

Test system: LG0703-F948-PDC complex spheroid viability
Test: Anticancer human tumor LG0703-F948-PDC patient-derived lung adenocarcinoma cell line growth inhibition
Conditions: for IC50: curve of first compound; for viability, T/C: stronger effect = lower value
Procedure, shortened: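 Complex spheroids of tumor cells with HUVEC and human MSCs, exposed to iadademstat combined with other agents. Each agent tested in half-log steps from near clinical Cmax (else 10 microM top), DMSO ≤0.25%.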

[1] = second compound 0.1 µM, first compound 0.0316 µM
[2] = second compound 0.1 µM, first compound 0.1 µM
[3] = second compound 0.1 µM, first compound 0.316 µM
[4] = second compound 0.1 µM, first compound 1 µM
[5] = second compound 0.1 µM, first compound 3.16 µM
[6] = second compound 0.1 µM, first compound 10 µM
[7] = second compound 0.316 µM, first compound 0.0316 µM
[8] = second compound 0.316 µM, first compound 0.1 µM
[9] = second compound 0.316 µM, first compound 0.316 µM
[10] = second compound 0.316 µM, first compound 1 µM
[11] = second compound 0.316 µM, first compound 3.16 µM
[12] = second compound 0.316 µM, first compound 10 µM
[13] = second compound 1 µM, first compound 0.0316 µM
[14] = second compound 1 µM, first compound 0.1 µM
[15] = second compound 1 µM, first compound 0.316 µM
[16] = second compound 1 µM, first compound 1 µM
[17] = second compound 1 µM, first compound 3.16 µM
[18] = second compound 1 µM, first compound 10 µM
[19] = second compound 3.16 µM, first compound 0.0316 µM
[20] = second compound 3.16 µM, first compound 0.1 µM
[21] = second compound 3.16 µM, first compound 0.316 µM
[22] = second compound 3.16 µM, first compound 1 µM
[23] = second compound 3.16 µM, first compound 3.16 µM
[24] = second compound 3.16 µM, first compound 10 µM
[25] = second compound 10 µM, first compound 0.0316 µM
[26] = second compound 10 µM, first compound 0.1 µM
[27] = second compound 10 µM, first compound 0.316 µM
[28] = second compound 10 µM, first compound 1 µM
[29] = second compound 10 µM, first compound 3.16 µM
[30] = second compound 10 µM, first compound 10 µM
[31] = second compound 0.1 µM, first compound 0.00316 µM
[32] = second compound 0.1 µM, first compound 0.01 µM
[33] = second compound 0.316 µM, first compound 0.00316 µM
[34] = second compound 0.316 µM, first compound 0.01 µM
[35] = second compound 1 µM, first compound 0.00316 µM
[36] = second compound 1 µM, first compound 0.01 µM
[37] = second compound 3.16 µM, first compound 0.00316 µM
[38] = second compound 3.16 µM, first compound 0.01 µM
[39] = second compound 10 µM, first compound 0.00316 µM
[40] = second compound 10 µM, first compound 0.01 µM
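Also: spheroids exposed to agents for seven days before readout.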
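For viability, T/C in this document: 100% = DMSO vehicle control wells as normalization base.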

CC(C)c1c(-c2ccccc2)nc2c(C#N)c[nH]n2c1=O + NC1CC1c1ccc(-c2cccc(O)c2)cc1 gave an IC50 (second compound 0.1 µM) of over 10000 nM, an IC50 (second compound 0.316 µM) of over 10000 nM and an IC50 (second compound 1 µM) of over 10000 nM. The IC50 (second compound 3.16 µM) was over 10000 nM, the IC50 (second compound 10 µM) was over 10000 nM and the viability, T/C [1] was 107%. It also gave a viability, T/C [2] of 102%, a viability, T/C [3] of 115% and a viability, T/C [4] of 94.3%. The viability, T/C [5] was 110%, the viability, T/C [6] was 82.7% and the viability, T/C [7] was 97.5%. It also gave a viability, T/C [8] of 106%, a viability, T/C [9] of 117% and a viability, T/C [10] of 108%. For the same compound, the viability, T/C [11] was 104%, the viability, T/C [12] was 91.8% and the viability, T/C [13] was 102%. The viability, T/C [14] was 109%, the viability, T/C [15] was 109% and the viability, T/C [16] was 109%. The viability, T/C [17] was 90.6%, the viability, T/C [18] was 69.7% and the viability, T/C [19] was 97.7%. For the same compound, the viability, T/C [20] was 93.4%, the viability, T/C [21] was 92.5% and the viability, T/C [22] was 99.8%. For the same compound, the viability, T/C [23] was 80.3%, the viability, T/C [24] was 82.3% and the viability, T/C [25] was 97.9%. The viability, T/C [26] was 97.6%, the viability, T/C [27] was 94.9% and the viability, T/C [28] was 85.3%. It also gave a viability, T/C [29] of 88.8% and a viability, T/C [30] of 74.2%.

Compound CC1COCCN1c1cc(-c2ccnn2C)c2ccnc(-c3ccn[nH]3)c2n1 (stereo not given) + NC1CC1c1ccc(-c2cccc(O)c2)cc1 has an IC50 (second compound 0.1 µM) of 37.4 nM, an IC50 (second compound 0.316 µM) of 44.4 nM and an IC50 (second compound 1 µM) of 49.1 nM. It also gave an IC50 (second compound 3.16 µM) of 43.7 nM, an IC50 (second compound 10 µM) of 46.3 nM and a viability, T/C [31] of 80.4%. For the same compound, the viability, T/C [32] was 74.6%, the viability, T/C [1] was 49.8% and the viability, T/C [2] was 32.7%. For the same compound, the viability, T/C [3] was 20.2%, the viability, T/C [4] was 7.17% and the viability, T/C [33] was 85.5%. It also gave a viability, T/C [34] of 72.3%, a viability, T/C [7] of 57.9% and a viability, T/C [8] of 33.9%. The viability, T/C [9] was 18.7%, the viability, T/C [10] was 6.39% and the viability, T/C [35] was 73%. For the same compound, the viability, T/C [36] was 70.2%, the viability, T/C [13] was 64.1% and the viability, T/C [14] was 27.9%. The viability, T/C [15] was 21.6%, the viability, T/C [16] was 6.68% and the viability, T/C [37] was 80.8%. For the same compound, the viability, T/C [38] was 77%, the viability, T/C [19] was 55.7% and the viability, T/C [20] was 31.4%. The viability, T/C [21] was 19.1%, the viability, T/C [22] was 6.21% and the viability, T/C [39] was 91.1%. It also gave a viability, T/C [40] of 82.3%, a viability, T/C [25] of 60.4% and a viability, T/C [26] of 28.6%. It also gave a viability, T/C [27] of 18.8% and a viability, T/C [28] of 8.21%.

Work on COc1ccc([C@@H](O)c2cc(-c3ncnc4cc(N5CCOCC5)ccc34)c(F)cc2Cl)nn1 + NC1CC1c1ccc(-c2cccc(O)c2)cc1 yielded an IC50 (second compound 0.1 µM) of 1520 nM, an IC50 (second compound 0.316 µM) of 1590 nM and an IC50 (second compound 1 µM) of 1490 nM. It also gave an IC50 (second compound 3.16 µM) of 1210 nM, an IC50 (second compound 10 µM) of 1140 nM and a viability, T/C [1] of 90.3%. It also gave a viability, T/C [2] of 110%, a viability, T/C [3] of 96.5% and a viability, T/C [4] of 61%. For the same compound, the viability, T/C [5] was 27.2%, the viability, T/C [6] was 3.8% and the viability, T/C [7] was 112%. For the same compound, the viability, T/C [8] was 98.2%, the viability, T/C [9] was 98.7% and the viability, T/C [10] was 68.2%. The viability, T/C [11] was 23%, the viability, T/C [12] was 4.64% and the viability, T/C [13] was 98.8%. For the same compound, the viability, T/C [14] was 96.7%, the viability, T/C [15] was 98.7% and the viability, T/C [16] was 63.8%. The viability, T/C [17] was 21.7%, the viability, T/C [18] was 3.41% and the viability, T/C [19] was 107%. The viability, T/C [20] was 101%, the viability, T/C [21] was 86.1% and the viability, T/C [22] was 59.2%. The viability, T/C [23] was 16.3%, the viability, T/C [24] was 2.59% and the viability, T/C [25] was 108%. It also gave a viability, T/C [26] of 99.4%, a viability, T/C [27] of 90.4% and a viability, T/C [28] of 57.9%. For the same compound, the viability, T/C [29] was 7.24% and the viability, T/C [30] was 2.33%.

With O=C(C=Cn1cnc(-c2cc(C(F)(F)F)cc(C(F)(F)F)c2)n1)NNc1cnccn1 + NC1CC1c1ccc(-c2cccc(O)c2)cc1 the IC50 (second compound 0.1 µM) was 12.1 nM, the IC50 (second compound 0.316 µM) was 18 nM and the IC50 (second compound 1 µM) was 25.9 nM. The IC50 (second compound 3.16 µM) was 69.1 nM, the IC50 (second compound 10 µM) was 114 nM and the viability, T/C [31] was 62.2%. For the same compound, the viability, T/C [32] was 54.6%, the viability, T/C [1] was 38.8% and the viability, T/C [2] was 34.7%. For the same compound, the viability, T/C [3] was 31.8%, the viability, T/C [4] was 25.4% and the viability, T/C [33] was 67.6%. The viability, T/C [34] was 58.9%, the viability, T/C [7] was 40% and the viability, T/C [8] was 36.2%. It also gave a viability, T/C [9] of 26%, a viability, T/C [10] of 24.6% and a viability, T/C [35] of 70.4%. The viability, T/C [36] was 58.8%, the viability, T/C [13] was 47% and the viability, T/C [14] was 39.5%. The viability, T/C [15] was 29.5%, the viability, T/C [16] was 22.6% and the viability, T/C [37] was 70.4%. For the same compound, the viability, T/C [38] was 67.7%, the viability, T/C [19] was 64% and the viability, T/C [20] was 43.6%. The viability, T/C [21] was 22.4%, the viability, T/C [22] was 22% and the viability, T/C [39] was 75.8%. It also gave a viability, T/C [40] of 73.1%, a viability, T/C [25] of 64.2% and a viability, T/C [26] of 54.9%. The viability, T/C [27] was 31.7% and the viability, T/C [28] was 23.7%.
